Where two headings read alike, the source gives them in different places.
Columns and labels:
PIN1 [1] = molecular target: T1, PIN1 (Homo sapiens, UniProt Q13526); assay: automated flow-through photo-CIDNP 1D 1H NMR screening against PIN1; type: binding; conditions: flow cell, 50 μM compound, 20 μM PIN1, 1.5 s irradiation
T1 construct: polyhistidine (N); made in house; host or cells: Escherichia coli BL21 (DE3)
Source text: While several other hyperpolarization methods yield higher SNE and have been established for ligand binding detection, their implementation into a highly automated system remains challenging.[43],[44] Photo-CIDNP hyperpolarization presents the advantage of being generated in situ, at room temperature, in solution, simply by shining light on the sample. To illustrate the agility of the photo-CIDNP ligand screening approach, we designed a flow-through setup compatible with a cryoprobe (Figure 7C). The setup consists of a pump, an autosampler, a valve, and a 3D printed flow cell (Figure 7B,C), which comprises an optic fiber for light irradiation coming from a 1.6 W diode laser emitting at 450 nm from Thorlabs. […] (iv) While the flow is stopped, a photo-CIDNP ^1H 1D NMR spectrum is recorded, as described above. […]
Figure 7 Automated screening of PIN1 with Nmhare1.0 library using photo-CIDNP 1D ^1H NMR. […] The photo-CIDNP NMR experiment is then recorded with the pulse program triggering light irradiation, and subsequently performing the NMR experiment acquisition, the NMR experiment can comprehend different numbers of transients (NS) and indirect time dimension points (TD) that will increase the measurement time accordingly; finally, the sample is washed by restoring the flow in the fluidic connection. […]

PIN1 [2] = molecular target: T1, PIN1; assay: [15N,1H]-HSQC titration series with increasing ligand concentration, PIN1; type: binding; conditions: values with * could not be fitted to a maximum, Kd most likely higher
Protocol: (B) Chemical shift perturbation titration studies of the compounds with ^15N-labeled PIN1 measured by [^15N,^1H]-HSQC experiments and shown for residues T154 and A124 in the presence of increasing ligand concentrations. […]
For the control binding experiments using ligand-induced chemical shift perturbation analysis, standard [^15N, ^1H]-HSQC spectra were measured. The detailed conditions for the 2D experiments acquired at 600 MHz ^1H NMR frequency were the 100 μM ^15N-labeled PDZ2 domain in the absence and presence of equimolar peptide in PDZ2 buffer and at a temperature of 298 K and 50 μM ^15N-labeled PIN1 in the absence and presence of 200 μM ligands in PIN1 buffer and at a temperature of 298 K, respectively. […] The data was zero–filled to 2048 points in the direct proton dimension and to 256 points in the ^15N–dimension. Processing was done with a shifted cosine window function for both dimensions. […] The spinlock times were set at 10 and 400 ms. The STD experiments were measured at 298 K with 16,384 (tmax (^1H) = 974 ms) complex points and 512 scans per increment.
Figure S7: Chemical shift perturbation-based Kd determination of individual compounds binding to PIN1. The chemical shift displacement of the 15N-1H moieties of A124 (black) and T154 (red) PIN1 (y-axis) in dependence on the compound […]
The fits to the titrations are highlighted by a line and the Kd extracted is given in mM. Compound 13 titration series ranges 0, 80, 100, 200, 300, 600, 1000, […]
concentration; compounds 3, 10, and 11 range 0, 200, 500, 1000, 2000, 3000 µM concentration and all the samples contained 80 µM of PIN1 protein and were measured in PIN1 buffer at 298K. […]

T1 sequence (Q13526 whole entry): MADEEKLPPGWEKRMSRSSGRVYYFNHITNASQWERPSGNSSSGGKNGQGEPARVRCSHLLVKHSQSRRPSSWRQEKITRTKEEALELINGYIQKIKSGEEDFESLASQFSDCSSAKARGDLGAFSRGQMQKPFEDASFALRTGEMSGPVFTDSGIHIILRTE

Cc1cccc(-c2nc(C)c(C(=O)O)[nH]2)c1 [Compound 13, reference compound]
photo-CIDNP signal in presence vs absence of PIN1 (PIN1 [1]): signal reduction | Kd (PIN1 [2]; fit of CSP build-up of residue A124, read-out: Kd A124): 4.5 mM | Kd (PIN1 [2]; fit of CSP build-up of residue T154, read-out: Kd T154): 1.7 mM
